In patent US11999745B2, “Pharmaceutical compounds” (Heptares Therapeutics Limited, priority 2020, dated 2024):
pEC50: −log10 of the molar value. Where two headings read alike, the source gives them in different places.

Legend:
[1] = Hepatocyte stability, CLint (in vitro hepatocytes), dog; type: in vitro ADME; settings: pooled cryopreserved hepatocytes, 1.0 million cells/mL, 37° C., read-out: in vitro intrinsic clearance (CLint)
Protocol: Hepatocyte stability assays were performed using pooled cryopreserved hepatocytes (Bioreclamation). Test compounds prepared in DMSO, were incubated at an initial concentration of 1 μM (0.25% DMSO final, n=2) with hepatocytes at cell densities of 1.0 million cells/mL at 37° C. Aliquots were removed at 0.5, 5, 10, 15, 30, 60 and 120 minutes for termination of reactions and compound extraction with acetonitrile containing an analytical internal standard (0.5 μM carbamazepine). Samples were centrifuged and the supernatant fractions analysed for parent compound by mass spectrometry (LC-MS/MS). The amount of compound remaining (expressed as %) was determined from the MS response in each sample relative to that in the T=0 samples (normalised for internal standard). Ln plots of the % remaining were used to determine the half-life for compound disappearance using the relationship: Half-Life(min)=−0.693/λ (where λ is the slope of the Ln % remaining vs time curve).

MDR1 (P-glycoprotein) = assay: MDCK permeability/efflux; type: in vitro ADME; settings: dog
Protocol: MDR1-MDCK cells (Solvo Biotechnology) were seeded onto 24-well Transwell plates at 2.35×10^5 cells per well and used in confluent monolayers after a 3 day culture at 37° C. under 5% CO2. For cell types, test and control compounds (propranolol, vinblastine) were added (1 μM, 0.1% DMSO final, n=2) to donor compartments of the Transwell plate assembly in assay buffer (Hanks balanced salt solution supplemented with 25 mM HEPES, adjusted to pH 7.4) for both apical to basolateral (A>B) and basolateral to apical (B>A) measurements. Incubations were performed at 37° C., with samples removed from both donor and acceptor chambers at T=0 and 1 hour and compound analysed by mass spectrometry (LC-MS/MS) including an analytical internal standard.
Apparent permeability (Papp) values were determined from the relationship: Papp=(CompoundAcceptor T=end/(CompoundDonor×VDonorγIncubation Time)×VDonor Area×60×10^−6 cm/s
Where V is the volume of each Transwell compartment (apical 125 μL, basolateral 600 μL), and concentrations are the relative MS responses for compound (normalized to internal standard) in the donor chamber before incubation and acceptor chamber at the end of the incubation. Area=area of cells exposed for drug transfer (0.33 cm^2). Efflux ratio (Papp B>A /Papp A>B) was calculated from the mean Papp values in each direction. […] Lucifer Yellow (LY) was added to the apical buffer in all wells to assess viability of the cell layer. […] Compound recovery from the wells was determined from MS responses (normalized to internal standard) in donor and acceptor chambers at the end of incubation compared to response in the donor chamber pre-incubation.

[2] = target: T1, human muscarinic M1 receptor (Homo sapiens, UniProt P11229); assay: Alphascreen Surefire phospho-ERK1/2 functional assay, M1; type: cell-based
T1 construct: expressed in transfected cells
T1 sequence (P11229 1-460): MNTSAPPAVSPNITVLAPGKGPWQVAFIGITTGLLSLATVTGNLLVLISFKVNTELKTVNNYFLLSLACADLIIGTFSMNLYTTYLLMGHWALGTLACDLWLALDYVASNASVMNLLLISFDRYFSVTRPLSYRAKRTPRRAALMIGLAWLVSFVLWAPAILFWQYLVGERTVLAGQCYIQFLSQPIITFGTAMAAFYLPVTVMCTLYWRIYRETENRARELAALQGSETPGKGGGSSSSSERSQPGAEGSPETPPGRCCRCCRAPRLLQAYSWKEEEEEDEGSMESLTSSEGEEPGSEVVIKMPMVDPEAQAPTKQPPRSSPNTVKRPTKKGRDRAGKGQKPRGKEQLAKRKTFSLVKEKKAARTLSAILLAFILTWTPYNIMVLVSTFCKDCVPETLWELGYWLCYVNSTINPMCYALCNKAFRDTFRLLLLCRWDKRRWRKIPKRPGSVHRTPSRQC
Protocol: ERK1/2 phosphorylation is a downstream consequence of both Gq/11 and Gi/o protein coupled receptor activation, making it highly suitable for the assessment of M1, M3 (Gq/11 coupled) and M2, M4 receptors (Gi/o coupled), rather than using different assay formats for different receptor subtypes. CHO cells stably expressing the human muscarinic M1, M2, M3 or M4 receptor were plated (25K/well) onto 96-well tissue culture plates in MEM-alpha+10% dialysed FBS. Once adhered, cells were serum-starved overnight. Agonist stimulation was performed by the addition of 5 μL agonist to the cells for 5 min (37° C.). Media was removed and 50 μL of lysis buffer added.

[3] = Unbound brain/unbound plasma concentration ratio (Kp,uu); type: in vivo; settings: brain and plasma (unbound); measured unbound plasma:brain distribution; parameter used in prediction; read-out: Kpuu (unbound brain/unbound plasma concentration)
From the text: Kp,uu—ratio of unbound brain concentration/unbound plasma concentration. Quantifies the net flux of drug across the blood brain barrier, including the quantitative role of transporters, without being confounded by nonspecific binding in plasma and brain tissues. Gupta et al, DMD, 2006; Hammarlund-Udenaes et al, PharmRes, 2008

M1 receptor = target: T2, M1 receptor (Homo sapiens, UniProt P11229); assay: Predicted target engagement for human efficacious dose (allometric scaling)
T2 sequence (P11229 1-460): T1 sequence (P11229 1-460)
From the text: Based on a measured equivalent unbound plasma:brain distribution profile (Kpuu=1) the exposures shown represent those in either the plasma or brain compartment.

[4] = parameter used in human receptor occupancy prediction

`CC(C)(C)NC(=O)C1CCN([C@H]2C[C@H]3CC[C@@H](C2)N3c2nc(C(F)(F)F)no2)CC1` [Example 1, N-tert-butyl-1-{(1R,3r,5S)-8-[3-(trifluoromethyl)-1,2,4-oxadiazol-5-yl]-8-azabicyclo[3.2.1]octan-3-yl}piperidine-4-carboxamide] showed a hepatocyte CLint at 1 μM [1] of 8 µL/min/1e6 cells, a Papp A→B at 1 h, 1 μM (MDR1 (P-glycoprotein); apical to basolateral, 1 μM, pH 7.4, 1 hour, read-out: Apparent permeability (Papp) A−B) of 66 ×10⁻⁶ cm/s and a Papp B→A at 1 h, 1 μM (MDR1 (P-glycoprotein); basolateral to apical, 1 μM, pH 7.4, 1 hour, read-out: Apparent permeability (Papp) B−A) of 77 ×10⁻⁶ cm/s. For the same molecule, the efflux ratio at 1 h, 1 μM (MDR1 (P-glycoprotein); pH 7.4, read-out: B−A/A−B efflux ratio) was 1.2, the EC50 ([2]; CHO cells stably expressing human M1, phospho-ERK1/2, read-out: pEC50 M1 (converted)) was 67.6 nM and the EC50 ([2]; as quoted in FIG. 1 legend, 50% target engagement, read-out: recombinant human EC50 (M1) (converted)) was 65.2 nM. The pEC50 ([2]; recombinant human EC50 (M1), as quoted in FIG. 1 legend, 50% target engagement) was 7.07, the Kp uu [3] was 1 and the “predicted dose to reach the unbound brain exposure required for M1 agonist efficacy” value (M1 receptor; human, oral, 6 hours unbound brain exposure over recombinant M1 EC50) was “approx. 22 mg”. For the same molecule, the predicted human half-life (M1 receptor; human, predicted from allometric scaling) was 15 h, the “CI (clearance)” value (M1 receptor; [4]) was 4.4 mL/min/kg and the “F (bioavailability)” value (M1 receptor; [4]) was 0.61. For the same molecule, the Ka (M1 receptor; [4]) was 1 and the V (M1 receptor; [4]) was 5.9.
